Here are results for 15 molecules from US20230192700A1, “PYRAZOLOPYRAZINES ACTING ON CANCERS VIA INHIBITION OF CDK12” (Bayer Aktiengesellschaft, priority 2020, published 2023).

Structures are written as SMILES. Bounds are passed on as bounds.

Experiment [1] concerns the target T1, CDK12/CyclinK (Homo sapiens, UniProt Q9NYV4).
T1 construct: His-CDK12 (aa Q696-S1082); made in house; host or cells: Hi-5 insect cells (baculovirus co-infection with CycK and yeast CAK1)
The experiment can be described thus: CDK12/CycK high ATP kinase assay (TR-FRET). Format: biochemical. The note with it: 2 mM ATP (high ATP); median; read-out: CDK12/CyclinK, 2 mM ATP (high ATP), IC50 - [mol/l] (median). The text has this:
2.2 CDK12/CycK high ATP Kinase Assay
In the context of the present invention, the term “IC50 CDK12 hATP” refers to the ICso values obtained according to the assay described in this section (2.2) herein below, i.e. the IC50 values for the inhibition of CDK12 at high ATP.
CDK12/CycK -inhibitory activity of compounds of the present invention at 2 millimol/L adenosine-tri-phosphate (ATP) was quantified employing the TR-FRET (TR-FRET=Time Resolved Fluorescence Energy Transfer) based CDK12/CycK activity inhibition assay as described in the following paragraphs.
A complex of human recombinant CDK12 and human recombinant CycK (both N-terminally His-tagged, expression and purification as described above) was used as enzyme. As substrate for the kinase reaction biotinylated peptide biotin-Ahx-KFELLPTPPLSPSRRSGL (C-terminus in amid form) was used which can be purchased e.g. form the company Biosyntan (Berlin-Buch, Germany).
For the assay 50 nanoL of a 100 fold concentrated solution of the test compound in DMSO was pipetted into either a black low volume 384 well microtiter plate or a black 1536 well microtiter plate (both Greiner Bio-One, Frickenhausen, Germany), 2 microL of a solution of CDK12/CycK in aqueous assay buffer [25 millimol/L HEPES pH 7.5, 20 millimol/L MgCl2, 5 millimol/L β-glycerophosphate, 2 millimol/L EGTA, 1.0 millimol/L dithiothreitol, 0.01% (v/v) Nonidet-P40 (Sigma), 0.01% (w/v) bovine serum albumin] were added and the mixture was incubated for 15 min at 22° C. to allow pre-binding of the test compounds to the enzyme before the start of the kinase reaction. Then the kinase reaction was started by the addition of 3 microL of a solution ATP (3.33 millimol/L=>final conc. in the 5 microL assay volume is 2 millimol/L) and substrate (1.67 micromol/L=>final conc. in the 5 microL assay volume is 1 micromol/L) in assay buffer and the resulting mixture was incubated for a reaction time of 60 min at 22° C. The concentration of CDK12/CycK was adjusted depending of the activity of the enzyme lot and was chosen appropriate to have the assay in the linear range, typical concentrations were about 0.75 nanomol/L. The reaction was stopped by the addition of 3 microL of a solution of TR-FRET detection reagents (125 nanomol/L streptavidine-XL665 [Cisbio Bioassays, Codolet, France] and 0.67 nanomol/L anti-Phospho-c-Myc (Ser 62) (E1J4K)-antibody from Cell Signalling [#13748] and 2 nanomol/L LANCE EU-W1024 labeled anti-rabbit IgG antibody [Perkin-Elmer, product no. 0083]) in an aqueous EDTA-solution (133 millimol/L EDTA, 0.27% (w/v) bovine serum albumin in 66.7 millimol/L HEPES pH 7.5).
The resulting mixture was incubated 1 h at 22° C. to allow the formation of complex between the phosphorylated biotinylated peptide and the detection reagents. Subsequently the amount of phosphorylated substrate was evaluated by measurement of the resonance energy transfer from the Eu-chelate to the streptavidine-XL. Therefore, the fluorescence emissions at 620 nm and 665 nm after excitation at 350 nm was measured in a TR-FRET reader, e.g. a Pherastar FS (BMG Labtechnologies, Offenburg, Germany) or a Viewlux (Perkin-Elmer). The ratio of the emissions at 665 nm and at […] was taken as the measure for the amount of phosphorylated substrate. The data were normalised (enzyme reaction without inhibitor=0% inhibition, all other assay components but no enzyme=100% inhibition).

Experiment [2] deals with T2, CDK12 (Homo sapiens, UniProt Q9NYV4).
T2 construct: endogenous in cells; host or cells: CAL-120 human breast cancer cells (DSMZ ACC 459)
T2 sequence (Q9NYV4 whole entry): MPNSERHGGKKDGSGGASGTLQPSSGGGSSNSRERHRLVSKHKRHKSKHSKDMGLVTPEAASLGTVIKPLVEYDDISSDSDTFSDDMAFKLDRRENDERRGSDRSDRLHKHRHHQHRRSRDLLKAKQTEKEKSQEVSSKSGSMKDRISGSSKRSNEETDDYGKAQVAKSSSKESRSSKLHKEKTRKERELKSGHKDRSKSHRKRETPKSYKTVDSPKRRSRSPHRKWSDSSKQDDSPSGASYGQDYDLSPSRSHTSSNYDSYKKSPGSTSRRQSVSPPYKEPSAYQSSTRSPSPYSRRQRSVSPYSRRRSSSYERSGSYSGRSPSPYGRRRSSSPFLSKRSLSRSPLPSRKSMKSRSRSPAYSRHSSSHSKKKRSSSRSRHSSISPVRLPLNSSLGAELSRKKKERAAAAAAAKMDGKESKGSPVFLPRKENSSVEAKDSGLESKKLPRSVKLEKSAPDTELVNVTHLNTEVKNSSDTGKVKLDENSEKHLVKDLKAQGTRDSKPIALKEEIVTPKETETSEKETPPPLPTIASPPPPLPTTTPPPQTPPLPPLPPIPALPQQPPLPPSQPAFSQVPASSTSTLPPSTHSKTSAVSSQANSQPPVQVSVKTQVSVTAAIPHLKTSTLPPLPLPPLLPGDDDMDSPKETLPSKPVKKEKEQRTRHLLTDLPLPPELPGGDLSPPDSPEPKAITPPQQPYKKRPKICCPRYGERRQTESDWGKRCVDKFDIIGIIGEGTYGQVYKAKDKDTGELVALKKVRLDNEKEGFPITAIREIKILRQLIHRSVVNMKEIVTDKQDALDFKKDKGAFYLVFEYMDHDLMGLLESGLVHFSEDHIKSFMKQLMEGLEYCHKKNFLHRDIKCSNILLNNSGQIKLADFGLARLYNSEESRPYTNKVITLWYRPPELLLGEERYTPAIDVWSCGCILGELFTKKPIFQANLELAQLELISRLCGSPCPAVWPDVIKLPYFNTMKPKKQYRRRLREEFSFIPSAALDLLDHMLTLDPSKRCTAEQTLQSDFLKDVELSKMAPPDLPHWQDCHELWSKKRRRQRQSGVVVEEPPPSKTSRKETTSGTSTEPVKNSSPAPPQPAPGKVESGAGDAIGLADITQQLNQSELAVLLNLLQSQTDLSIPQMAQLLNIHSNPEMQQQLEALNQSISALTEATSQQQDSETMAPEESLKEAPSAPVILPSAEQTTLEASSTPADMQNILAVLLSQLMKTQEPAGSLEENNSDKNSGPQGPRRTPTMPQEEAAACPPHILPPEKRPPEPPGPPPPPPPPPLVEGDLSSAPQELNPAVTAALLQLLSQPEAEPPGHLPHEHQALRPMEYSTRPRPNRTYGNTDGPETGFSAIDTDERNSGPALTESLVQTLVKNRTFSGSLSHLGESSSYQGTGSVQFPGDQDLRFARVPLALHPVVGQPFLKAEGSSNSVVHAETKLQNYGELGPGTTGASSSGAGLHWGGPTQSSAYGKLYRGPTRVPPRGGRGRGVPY
T2 sequence (O75909 whole entry partner): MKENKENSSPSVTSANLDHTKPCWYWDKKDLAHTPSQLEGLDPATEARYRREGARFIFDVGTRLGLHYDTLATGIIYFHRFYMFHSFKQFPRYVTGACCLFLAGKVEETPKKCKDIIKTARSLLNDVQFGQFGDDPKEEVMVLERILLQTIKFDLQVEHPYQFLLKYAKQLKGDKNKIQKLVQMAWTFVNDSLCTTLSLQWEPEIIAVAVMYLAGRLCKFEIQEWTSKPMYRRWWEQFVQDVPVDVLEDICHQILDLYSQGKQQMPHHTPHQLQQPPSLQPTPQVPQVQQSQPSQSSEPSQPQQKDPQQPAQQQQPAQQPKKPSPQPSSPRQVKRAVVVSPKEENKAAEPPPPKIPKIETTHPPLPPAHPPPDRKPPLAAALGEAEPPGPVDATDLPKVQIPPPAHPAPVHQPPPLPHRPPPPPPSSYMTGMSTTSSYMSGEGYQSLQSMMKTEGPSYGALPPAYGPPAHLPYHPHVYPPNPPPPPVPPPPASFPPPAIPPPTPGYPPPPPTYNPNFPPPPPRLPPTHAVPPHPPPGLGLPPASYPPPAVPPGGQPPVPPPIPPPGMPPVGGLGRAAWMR
As to the kind of experiment: CDK12 nuclear protein level: immunofluorescence/high content analysis in CAL-120 cells. To be noted: for DC50: CAL-120 cells, 24 h, nuclear CDK12 staining intensity, median, read-out: CDK12 degradation IF DC50 - [mol/l] (median); for (IC50 CDK12 high ATP) to (Degradation DC50 CDK12) ratio: ratio of IC50 CDK12 hATP (2 mM ATP) to DC50 CDK12 (IF, CAL-120). It counts as cell-based. As to the method:
6. CDK12 Nuclear Protein Level: Immunofluorescence/High Content Analysis
In the context of the present invention, the term “DC50 CDK12” refers to the DC50 values obtained according to the assay described in this section (6) herein below, i.e. the DC50 values for the degradation of CDK12.:
CAL-120 human breast cancer cells (DSMZ ACC 459) are seeded in 1536-well microtiter plates (800 cells per well) containing 50 nanoL of compounds in Dose-Response. Control wells received DMSO or Reference Example 1. Plates are then incubated for 24 h at 37° C. in an humidified incubator and fixed with 4% PFA for 10 min. Then immunofluorescence (IF) against CDK12 (CellSignalling CDK12 Antibody #11973, rabbit, 1:100 dilution) is performed using standard IF protocols. Cells are then stained with Hoechst 33342 (Life Technologies, H-1399, 0.1 microg/mL) and imaged on an automated confocal microscopy system (e.g. Perkin Elmer Opera Phenix). Nuclear and cytoplasmic intensity as well as the nuclear/cytoplasmic intensity ratio is determined by automated image analysis using custom generated scripts (MetaXpress). Data is then transferred to Genedata Screener software, normalized to DMSO and control and DC50 values (degrading concentration to achieve 50% reduction of nuclear CDK12 staining intensity relative to controls) are reported.

T1 sequence (Q9NYV4 with tags, fused parts or gaps): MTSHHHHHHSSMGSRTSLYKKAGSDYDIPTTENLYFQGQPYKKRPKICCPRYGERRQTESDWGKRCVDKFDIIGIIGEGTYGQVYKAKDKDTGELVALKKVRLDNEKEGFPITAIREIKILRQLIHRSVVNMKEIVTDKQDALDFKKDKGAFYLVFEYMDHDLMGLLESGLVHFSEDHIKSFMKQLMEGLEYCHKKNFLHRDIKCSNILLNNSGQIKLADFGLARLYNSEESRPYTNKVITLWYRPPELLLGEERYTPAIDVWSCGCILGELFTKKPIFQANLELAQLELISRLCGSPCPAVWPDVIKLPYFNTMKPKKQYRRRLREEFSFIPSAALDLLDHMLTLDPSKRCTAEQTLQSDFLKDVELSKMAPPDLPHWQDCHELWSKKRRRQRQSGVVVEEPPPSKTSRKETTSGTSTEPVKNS
T1 sequence (O75909 with tags, fused parts or gaps partner limits assumed): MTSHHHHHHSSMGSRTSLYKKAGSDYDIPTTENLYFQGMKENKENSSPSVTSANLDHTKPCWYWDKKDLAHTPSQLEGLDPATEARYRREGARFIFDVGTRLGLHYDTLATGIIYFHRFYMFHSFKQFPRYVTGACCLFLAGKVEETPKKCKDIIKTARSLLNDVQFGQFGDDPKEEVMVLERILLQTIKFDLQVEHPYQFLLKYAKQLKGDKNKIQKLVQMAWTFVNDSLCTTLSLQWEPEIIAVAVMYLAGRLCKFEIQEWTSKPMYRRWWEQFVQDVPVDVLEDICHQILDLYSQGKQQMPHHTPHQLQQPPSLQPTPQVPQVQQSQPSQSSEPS

With `CC(CCN(C)C)n1nc(NCc2nc3ccccc3[nH]2)c2ncc(C3CC3)nc21` (single isomer, unassigned) [Example 64, (−) or(+)-N-[(1H-benzimidazol-2-yl)methyl]-6-cyclopropyl-1-[4-(dimethylamino)butan-2-yl]-1H-pyrazolo[3,4-b]pyrazin-3-amine], the IC50 in experiment [1] is more than 20000 nM. Also, in experiment [2], the DC50 is 82.6 nM and the “(IC50 CDK12 high ATP) to (Degradation DC50 CDK12) ratio” value is more than 242.
For `CN1CCC(n2nc(NCc3nc4ccccc4[nH]3)c3ncc(C4CC4)nc32)C1` (single isomer, unassigned) [Example 78, (+) or (−)-N-[(1H-benzimidazol-2-yl)methyl]-6-cyclopropyl-1-(1-methylpyrrolidin-3-yl)-1H-pyrazolo[3,4-b]pyrazin-3-amine], the IC50 in experiment [1] is more than 20000 nM. In experiment [2], the DC50 is 33.6 nM and the “(IC50 CDK12 high ATP) to (Degradation DC50 CDK12) ratio” value is more than 596.
Regarding `CN1CCC(n2nc(NCc3nc4ccccc4[nH]3)c3ncc(C4CC4)nc32)C1` (single isomer, unassigned) [Example 79, (−) or (+)-N-[(1H-benzimidazol-2-yl)methyl]-6-cyclopropyl-1-(1-methylpyrrolidin-3-yl)-1H-pyrazolo[3,4-b]pyrazin-3-amine], the IC50 in experiment [1] was more than 20000 nM. In addition, in experiment [2], the DC50 was 41.2 nM.
Take `COCCC(C)n1nc(NCc2nc3ccccc3[nH]2)c2ncc(C3CC3)nc21` (single isomer, unassigned; (+)) [Example 59, (+)-N-[(1H-benzimidazol-2-yl)methyl]-6-cyclopropyl-1-[4-methoxybutan-2-yl]-1H-pyrazolo[3,4-b]pyrazin-3-amine]: in experiment [1], the IC50 was more than 20000 nM. In experiment [2], the DC50 came to 32.4 nM and the “(IC50 CDK12 high ATP) to (Degradation DC50 CDK12) ratio” value is more than 618.
On to `COCCC(C)n1nc(NCc2nc3ccccc3[nH]2)c2ncc(C3CC3)nc21` (single isomer, unassigned; (-)) [Example 58, (−)-N-[(1H-benzimidazol-2-yl)methyl]-6-cyclopropyl-1-[4-methoxybutan-2-yl]-1H-pyrazolo[3,4-b]pyrazin-3-amine], for which the IC50 in experiment [1] is more than 20000 nM. Besides, in experiment [2], the DC50 was 27.2 nM and the “(IC50 CDK12 high ATP) to (Degradation DC50 CDK12) ratio” value was more than 735.
Regarding `CN1CCC(n2nc(NCc3nc4ccccc4[nH]3)c3ncc(C4CC4)nc32)CC1` [Example 1, N-[(1H-benzimidazol-2-yl)methyl]-6-cyclopropyl-1-(1-methylpiperidin-4-yl)-1H-pyrazolo[3,4-b]pyrazin-3-amine], the IC50 in experiment [1] is more than 20000 nM. For the same molecule, in experiment [2], the DC50 turned out to be 4.2 nM and the “(IC50 CDK12 high ATP) to (Degradation DC50 CDK12) ratio” value was more than 2380.
`COc1cccc2[nH]c(CNc3nn(C4CCN(C)CC4)c4nc(C5CC5)cnc34)nc12` [Example 2, 6-cyclopropyl-N-[(4-methoxy-1H-benzimidazol-2-yl)methyl]-1-(1-methylpiperidin-4-yl)-1H-pyrazolo[3,4-b]pyrazin-3-amine]: the IC50 in experiment [1] was more than 20000 nM. Further, in experiment [2], the DC50 was 6.09 nM and the “(IC50 CDK12 high ATP) to (Degradation DC50 CDK12) ratio” value is more than 3284.
As to `CN1CCC(n2nc(NCc3nc4c(F)cccc4[nH]3)c3ncc(C4CC4)nc32)CC1` [Example 3, 6-cyclopropyl-N-[(4-fluoro-1H-benzimidazol-2-yl)methyl]-1-(1-methylpiperidin-4-yl)-1H-pyrazolo[3,4-b]pyrazin-3-amine], the IC50 in experiment [1] is not below 11600 nM. Also, the DC50 in experiment [2] was 1.92 nM.
Regarding `CN1CCC(n2nc(NCc3nc4cc(F)ccc4[nH]3)c3ncc(C4CC4)nc32)CC1` [Example 4, 6-cyclopropyl-N-[(5-fluoro-1H-benzimidazol-2-yl)methyl]-1-(1-methylpiperidin-4-yl)-1H-pyrazolo[3,4-b]pyrazin-3-amine], in experiment [1], the IC50 is more than 20000 nM. In addition, the DC50 in experiment [2] worked out at 4.3 nM.
Consider `Cc1ccc2[nH]c(CNc3nn(C4CCN(C)CC4)c4nc(C5CC5)cnc34)nc2c1` [Example 6, 6-cyclopropyl-N-[(5-methyl-1H-benzimidazol-2-yl)methyl]-1-(1-methylpiperidin-4-yl)-1H-pyrazolo[3,4-b]pyrazin-3-amine], for which the IC50 in experiment [1] was more than 20000 nM. In experiment [2], the DC50 was 13.1 nM and the “(IC50 CDK12 high ATP) to (Degradation DC50 CDK12) ratio” value was more than 1526.
`CN1CCC(n2nc(NCc3nc4c(C(F)(F)F)cccc4[nH]3)c3ncc(C4CC4)nc32)CC1` [Example 7, 6-cyclopropyl-1-(1-methylpiperidin-4-yl)-N-{[4-(trifluoromethyl)-1H-benzimidazol-2-yl]methyl}-1H-pyrazolo[3,4-b]pyrazin-3-amine]: the IC50 in experiment [1] is more than 20000 nM. For the same molecule, in experiment [2], the DC50 was determined as 14.4 nM.
With `Cc1cccc2[nH]c(CNc3nn(C4CCN(C)CC4)c4nc(C5CC5)cnc34)nc12` [Example 8, 6-cyclopropyl-N-[(4-methyl-1H-benzimidazol-2-yl)methyl]-1-(1-methylpiperidin-4-yl)-1H-pyrazolo[3,4-b]pyrazin-3-amine], the IC50 in experiment [1] is more than 20000 nM. In addition, in experiment [2], the DC50 is 8.53 nM and the “(IC50 CDK12 high ATP) to (Degradation DC50 CDK12) ratio” value was more than 2344.
Turning to `CN1CCC(n2nc(NCc3nc4c(F)c(F)ccc4[nH]3)c3ncc(C4CC4)nc32)CC1` [Example 9, 6-cyclopropyl-N-[(4,5-difluoro-1H-benzimidazol-2-yl)methyl]-1-(1-methylpiperidin-4-yl)-1H-pyrazolo[3,4-b]pyrazin-3-amine], in experiment [1], the IC50 is more than 20000 nM. Further, in experiment [2], the DC50 turned out to be 8.07 nM and the “(IC50 CDK12 high ATP) to (Degradation DC50 CDK12) ratio” value is listed as more than 2478.
Turning to `CC(C)(C)OC(=O)N1CCC(n2nc(NCc3nc4ccccc4[nH]3)c3ncc(C4CC4)nc32)CC1` [Example 11, tert-butyl 4-(3-{[(1H-benzimidazol-2-yl)methyl]amino}-6-cyclopropyl-1H-pyrazolo[3,4-b]pyrazin-1-yl)piperidine-1-carboxylate], in experiment [1], the IC50 was more than 20000 nM. In experiment [2], the DC50 was found to be 74.9 nM and the “(IC50 CDK12 high ATP) to (Degradation DC50 CDK12) ratio” value is more than 267.
In the case of `c1ccc2[nH]c(CNc3nn(C4CCNCC4)c4nc(C5CC5)cnc34)nc2c1` [Example 12, N-[(1H-benzimidazol-2-yl)methyl]-6-cyclopropyl-1-(piperidin-4-yl)-1H-pyrazolo[3,4-b]pyrazin-3-amine], the IC50 in experiment [1] is more than 20000 nM. In addition, in experiment [2], the DC50 is 8.53 nM and the “(IC50 CDK12 high ATP) to (Degradation DC50 CDK12) ratio” value was more than 2344.
